In patent publication US20210283163A1, “COMPOSITIONS AND METHODS FOR THE TREATMENT OF ACUTE AND CHRONIC PRURITIS” (Duke University, priority 2018, published 2021):

Experiments:
hTRPA1 = hTRPA1 (Homo sapiens, UniProt O75762); assay: Outside-out patch recordings, single channel activity, hTRPA1-expressing HEK293 cells; format: cell-based
Protocol: Inside-Out and Outside-Out Patch Clamp Recordings on HEK293 Cells. For inside-out recordings in TRPA1-expressing HEK293 cells, pipette resistance was 8-10 MΩ and, the internal solution contains: 126 mM K-gluconate, 10 mM NaCl, 1 mM MgCl2, 10 mM EGTA, 10 mM HEPES, and 2 Na-ATP (adjusted to pH 7.3 with KOH, osmolarity to 295-300 mOsm). The recordings were performed at room temperature in a bath solution (intracellular side) of 140 mM NaCl, 10 mM EGTA, 5 mM KCl, 2 mM CaCl2, 1 mM MgCl2, 10 mM HEPES, 10 mM glucose, adjusted to pH 7.4 with NaOH and osmolarity to 300-310 mOsm (Park et al., Neuron 2014, 82, 47-54). For comparison, outside-out recordings were also performed in TRPA1-expressing HEK293 cells in an extracellular solution of 140 mM NaCl, 5 mM KCl, 2 mM MgCl2, 10 mM HEPES, and 10 mM glucose (adjusted to pH 7.4 with NaOH and osmolarity to 300-310 mOsm). The internal solution contains 140 mM CsCl, 10 mM EGTA, 10 mM HEPES, and mM 2 Mg-ATP, adjusted to pH 7.3 with CsOH. Currents were low-pass filtered at 2 kHz and digitized at a sampling rate of 10 kHz with Digidata-1440A (Axon Instruments). The pClamp10 (Axon Instruments) software was used during experiments and data analysis. Opening and closing transitions of single channels were detected by using 50% of the threshold criterion. All events were carefully checked before the analysis. When superimposed openings were observed, the number of channels in the patch was estimated from the maximal number of superimposed openings. The single-channel open probability (Po) was determined using the following equation: Po=T′/T, where T′ is the total open time for a patch over time T.

TG neurons = assay: Calcium imaging in TG neurons of Pirt-GCaMP3 mice; format: cell-based, mouse; conditions: histamine 500 μM, CQ 1000 μM, AITC 200 μM; for TG neurons responding (calcium): miR-711 50 μM, 204 neurons
Protocol: Primary Cultures of Mouse and Human Sensory Neurons. […] Cells were mechanically dissociated with a flame polished Pasteur pipette in the presence of 0.05% DNase I (Sigma).
Ca^2+ Imaging. […] The imaging buffer includes 140 mM NaCl, 10 mM D-(+)-Glucose, 1 mM MgCl2, 2 mM CaCl2, 5 mM KCl, 10 mM HEPES, pH=7.4, osmolarity=320 mOsm/L. Calcium signals were measured using green emitted light in a 3 s interval. Ca ^2+ signal amplitudes were presented as ΔF/F0=(Ft−F0)/F0 as ratio of fluorescence difference (Ft−F0) to basal value (F0). The average fluorescence intensity in the baseline period was taken as F0. Ca ^2+ imaging was also analyzed in HEK293-TRPA1 cell line after loading cells with […] fura2-AM (Invitrogen) for 40 min in the Ca^2+ imaging buffer. Ca^2+ imaging protocol was a ratio metric method with 340/380-nm wavelength light for dual excitation. Data were presented as ΔR/R0, determined as the fraction ΔR (Rt−R0) of the increase of a given ratio over baseline ratio (R0).

mTRPA1 mutants (M1-M13) = assay: Whole-cell patch clamp in CHO cells transfected with mutant mTrpa1 cDNAs (M1-M13); format: cell-based, mouse; conditions: for effect of mutations on induced currents: M2, M3, M4, M5, and M10; for induced currents in mutants: mutants M1, M6, M7, M8, M9, and M12, AITC 50 μM, miR-711 10 μM
Protocol: Constructs. The cDNAs of mouse pcDNA3.1-Trpa1, pcDNA3.1-Trpv1, pcDNA3.1-Trpv2, pcDNA3.1-Trpv3, and pcDNA3.1-Trpv4 were kindly provided Dr. Sun Work Hwang from Korea University. Mouse Trpa1 cDNA was subcloned into pCGN-HA backbone (Addgene) using In-Fusion HD Cloning Kit (Clontech Laboratories, CA). Q5 Site-Directed Mutagenesis Kit was used to generate mTrpa1 mutant (M1-M13) based on pCGN-mTrpa1.
Cell Culture and Transfection. CD4^+ Myla cell line was cultured in RPMI 1640 media (GIBCO), supplemented with 2 mM Glutamine (GIBCO), 100 U/mL IL-2 (Sigma), 100 U/mL IL-4 (Sigma), and 10% human AB serum (Sigma). HuT 102 cell line was cultured in RPMI 1640 supplemented with pyruvate, HEPES, and 10% (v/v) fetal bovine serum (HyClone). HEK293-hTRPA1 stable cell line was cultured in MEM (GIBCO) containing 2 mM Glutamine, 4 μg/mL Blasticidin, 10% FBS (v/v). B16 and CHO cells were cultured in high glucose (4.5 g/L) Dulbecco's Modified Eagle's Medium (GIBCO) containing 10% (v/v) fetal bovine serum (GIBCO). Culture media were supplemented with 50 units/mL of penicillin and 50 μg/mL streptomycin, and cultures were maintained with 5% CO2 in 37° C. incubator. Transfection (2 μg cDNA) was performed with Lipofectamine™ 2000 Reagent (Invitrogen) at 80% confluency and the transfected cells were cultured in the same media for 48 hr before electrophysiological and biochemical studies.
Whole-Cell Patch Clamp Recordings in HEK293 Cells, CHO Cells, and DRG Neurons. Whole-cell patch clamp recordings were performed at room temperature using an Axopatch-200B amplifier (Axon Instruments) with a Digidata 1440B (Axon Instruments). In this study, we only examined small-diameter mouse DRG neurons (<25 μM) and small-diameter human DRG neurons (<55 μM). The patch pipettes were pulled from borosilicate capillaries (World Precision Instruments) using a P-97 Flaming/Brown micropipette puller (Sutter Instrument). Pipette resistance was 4-6 MΩ for whole-cell and outside-out recording. For inward current recordings in mouse and human DRG neurons, HEK293 cells, and CHO cells, the internal solution contains (in mM): 140 CsCl, 10 EGTA, 10 HEPES, and 2 Mg-ATP, adjusted to pH 7.3 with CsOH. Whole cell recordings were performed in an extracellular solution that contains (in mM): 140 NaCl, 5 KCl, 2 MgCl2, 10 HEPES, and 10 glucose, adjusted to pH 7.4 with NaOH and osmolarity to 300-310 mOsm. […] Action potential recordings were performed in small-diameter DRG neurons, with the following solutions: i) internal pipette solution contains: 126 mM K-gluconate, 10 mM NaCl, 1 mM MgCl2, 10 mM EGTA, 10 mM HEPES and 2 mM Na-ATP, adjusted to pH 7.4 with KOH and osmolarity to 295-300 mOsm), and ii) extracellular solution contains: 140 mM NaCl, 5 mM KCl, 2 mM MgCl2, 2 mM CaCl2, 10 mM HEPES, 10 mM glucose, adjusted to pH 7.4 with KOH.

Chain of hTRPA1 (O75762 whole entry): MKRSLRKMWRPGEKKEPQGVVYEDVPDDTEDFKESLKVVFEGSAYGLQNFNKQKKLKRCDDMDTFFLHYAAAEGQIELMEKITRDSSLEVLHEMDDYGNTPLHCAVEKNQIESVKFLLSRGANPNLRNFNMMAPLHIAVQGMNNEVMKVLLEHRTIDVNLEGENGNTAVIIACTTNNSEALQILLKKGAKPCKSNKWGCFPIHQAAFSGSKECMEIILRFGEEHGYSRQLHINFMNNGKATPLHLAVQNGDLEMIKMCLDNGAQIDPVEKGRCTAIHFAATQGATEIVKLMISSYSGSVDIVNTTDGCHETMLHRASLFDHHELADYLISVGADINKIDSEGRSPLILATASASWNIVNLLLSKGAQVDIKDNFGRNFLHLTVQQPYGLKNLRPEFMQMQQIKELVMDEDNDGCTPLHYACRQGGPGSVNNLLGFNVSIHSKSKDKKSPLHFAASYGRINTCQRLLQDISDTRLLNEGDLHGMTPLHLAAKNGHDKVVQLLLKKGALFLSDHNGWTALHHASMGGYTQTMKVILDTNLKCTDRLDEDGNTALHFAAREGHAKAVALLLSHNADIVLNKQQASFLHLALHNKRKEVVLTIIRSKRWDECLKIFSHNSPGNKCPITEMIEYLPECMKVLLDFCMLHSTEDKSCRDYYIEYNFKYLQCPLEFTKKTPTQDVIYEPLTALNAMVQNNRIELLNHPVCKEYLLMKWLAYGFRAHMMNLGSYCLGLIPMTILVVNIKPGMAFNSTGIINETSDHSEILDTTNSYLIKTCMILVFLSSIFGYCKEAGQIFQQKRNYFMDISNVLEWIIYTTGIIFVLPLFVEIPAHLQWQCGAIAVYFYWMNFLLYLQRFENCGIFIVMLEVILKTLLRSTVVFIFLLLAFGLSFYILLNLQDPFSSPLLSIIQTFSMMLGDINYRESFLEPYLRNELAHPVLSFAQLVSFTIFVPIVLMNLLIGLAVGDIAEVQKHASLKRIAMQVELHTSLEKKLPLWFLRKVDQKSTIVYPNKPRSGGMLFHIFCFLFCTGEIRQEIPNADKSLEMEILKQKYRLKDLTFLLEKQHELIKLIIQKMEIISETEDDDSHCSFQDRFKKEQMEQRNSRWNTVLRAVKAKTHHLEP

CCC(=N\O)/C(C)=C/c1ccc(F)cc1 [A967079, (1E,3E)-1-(4-Fluorophenyl)-2-methyl-1-pentene-3-one oxime]
block of miR-711-induced single channel activity (hTRPA1; outside-out patch): completely blocked

C=CCN=C=S [AITC]
miR-711-responsive TG neurons that also responded (TG neurons): 100%
TG neurons responding (calcium) (TG neurons): 32.4%
AITC-induced currents in mutants (mTRPA1 mutants (M1-M13); M2, M3, M4, M5, M10, M11, and M13): unaltered
effect of mutations on induced currents (mTRPA1 mutants (M1-M13)): no effects
induced currents in mutants (mTRPA1 mutants (M1-M13)): substantial reductions

miR-711: mmu-miR-711: gggacccggggagagauguaag (SEQ ID NO: 5) (GGGACCCGGGGAGAGAUGUAAG; chemistry not given here)
single-channel opening events, extracellular surface (hTRPA1; bath application, miR-711 10 μM, AITC 50 μM, held at −60 mV): elicited single-channel opening events
duration of single channel opening (average open time) (hTRPA1; miR-711 10 μM versus AITC 50 μM): significantly shorter
single channel conductance (hTRPA1; mmu-miR-711 versus AITC): not significant
TG neurons responding (calcium) (TG neurons): 12.3%
effect of mutations on induced currents (mTRPA1 mutants (M1-M13)): no effects
induced currents in mutants (mTRPA1 mutants (M1-M13)): substantial reductions
